In paper PMC7211202 (Investigational New Drugs, 2019):

Assay: Patient incidence of adverse events (CTCAE version 4.0)
Format: in vivo
Conditions: dose escalation
Excerpt: Each patient was monitored for 21 days for the occurrence of dose-limiting toxicities (DLTs), defined as febrile neutropenia, neutropenic infection, grade 4 neutropenia lasting >7 days, grade ≥ 3 thrombocytopenia lasting >7 days (solid tumors only), grade 3 thrombocytopenia with grade ≥ 2 bleeding (solid tumors only), grade 3 or 4 thrombocytopenia with grade > 1 bleeding (multiple myeloma only), grade 4 thrombocytopenia (solid tumors only), or grade 4 thrombocytopenia lasting >14 days (multiple myeloma only), or as grade ≥ 3 nausea, vomiting, or diarrhea after support; grade 3 fatigue lasting >7 days; any other grade ≥ 3 adverse event (AE); grade ≥ 3 kidney injury (multiple myeloma only), or treatment-related AEs not returning to grade ≤ 1 (solid tumors only) per Common Terminology Criteria for Adverse Events (CTCAE), version 4.0. The MTD was defined as the maximum dose, at which the probability of a DLT was ≤25% in Part 1A and ≤ 33% in Parts 1B and 1C. Treatment continued until disease progression, intolerable toxicity, or withdrawal of consent.
AEs were recorded for all enrolled patients.

## CC(C)[C@@H](CS(=O)(=O)C(C)C)N1C(=O)[C@@](C)(CC(=O)O)C[C@H](c2cccc(Cl)c2)[C@H]1c1ccc(Cl)cc1 [AMG 232]
30 mg (n = 3)
  Treatment-related serious AE: Dehydration (grade 2): 0 n (%)
  Treatment-related serious AE: Diarrhea: 0 n (%)
  Treatment-related serious AE: Diarrhea, Grade 2: 0 n (%)
  Treatment-related serious AE: Diarrhea, Grade 3: 0 n (%)
  Treatment-related serious AE: Febrile neutropenia (grade 3): 0 n (%)
  Treatment-related serious AE: Hematemesis (grade 3): 0 n (%)
  Treatment-related serious AE: Nausea (grade 3): 0 n (%)
  Treatment-related serious AE: Neutropenia (grade 4): 0 n (%)
  Treatment-related serious AE: Non-cardiac chest pain (grade 3): 0 n (%)
  Treatment-related serious AE: Thrombocytopenia (grade 4): 0 n (%)
  Treatment-related serious AE: Vomiting: 0 n (%)
  Treatment-related serious AE: Vomiting, Grade 2: 0 n (%)
  Treatment-related serious AE: Vomiting, Grade 3: 0 n (%)
60 mg (n = 4)
  Patients with any treatment-emergent AE: 4 (100) n (%)
  Patients with any treatment-emergent serious AE: 0 n (%)
  Patients with any treatment-related AE: 3 (75) n (%)
  Patients with any treatment-related AE, Grade 3: 0 n (%)
  Patients with any treatment-related AE, Grade 4: 0 n (%)
  Patients with any treatment-related AE, Grade 5: 0 n (%)
  Patients with any treatment-related serious AE: 0 n (%)
  Treatment-related AE: Abdominal pain: 0 n (%)
  Treatment-related AE: Anemia: 0 n (%)
  Treatment-related AE: Asthenia: 0 n (%)
  Treatment-related AE: Decrease appetite: 1 (25) n (%)
  Treatment-related AE: Diarrhea: 1 (25) n (%)
  Treatment-related AE: Dysgeusia: 0 n (%)
  Treatment-related AE: Fatigue: 1 (25) n (%)
  Treatment-related AE: Myalgia: 0 n (%)
  Treatment-related AE: Nausea: 3 (75) n (%)
  Treatment-related AE: Neutropenia: 0 n (%)
  Treatment-related AE: Thrombocytopenia: 0 n (%)
  Treatment-related AE: Upper abdominal pain: 0 n (%)
  Treatment-related AE: Vomiting: 0 n (%)
  Treatment-related serious AE: Abdominal pain (grade 2): 0 n (%)
  Treatment-related serious AE: Dehydration (grade 2): 0 n (%)
  Treatment-related serious AE: Diarrhea: 0 n (%)
  Treatment-related serious AE: Diarrhea, Grade 2: 0 n (%)
  Treatment-related serious AE: Diarrhea, Grade 3: 0 n (%)
  Treatment-related serious AE: Febrile neutropenia (grade 3): 0 n (%)
  Treatment-related serious AE: Hematemesis (grade 3): 0 n (%)
  Treatment-related serious AE: Nausea (grade 3): 0 n (%)
  Treatment-related serious AE: Neutropenia (grade 4): 0 n (%)
  Treatment-related serious AE: Non-cardiac chest pain (grade 3): 0 n (%)
  Treatment-related serious AE: Thrombocytopenia (grade 4): 0 n (%)
  Treatment-related serious AE: Vomiting: 0 n (%)
  Treatment-related serious AE: Vomiting, Grade 2: 0 n (%)
  Treatment-related serious AE: Vomiting, Grade 3: 0 n (%)
120 mg (n = 7)
  Patients with any treatment-emergent AE: 7 (100) n (%)
  Patients with any treatment-emergent serious AE: 3 (43) n (%)
  Patients with any treatment-related AE: 7 (100) n (%)
  Patients with any treatment-related AE, Grade 3: 1 (14) n (%)
  Patients with any treatment-related AE, Grade 4: 1 (14) n (%)
  Patients with any treatment-related AE, Grade 5: 0 n (%)
  Patients with any treatment-related serious AE: 0 n (%)
  Treatment-related AE: Abdominal pain: 0 n (%)
  Treatment-related AE: Anemia: 0 n (%)
  Treatment-related AE: Asthenia: 0 n (%)
  Treatment-related AE: Decrease appetite: 2 (29) n (%)
  Treatment-related AE: Diarrhea: 3 (43) n (%)
  Treatment-related AE: Dysgeusia: 0 n (%)
  Treatment-related AE: Fatigue: 3 (43) n (%)
  Treatment-related AE: Myalgia: 1 (14) n (%)
  Treatment-related AE: Nausea: 3 (43) n (%)
  Treatment-related AE: Neutropenia: 0 n (%)
  Treatment-related AE: Thrombocytopenia: 1 (14) n (%)
  Treatment-related AE: Upper abdominal pain: 1 (14) n (%)
  Treatment-related AE: Vomiting: 2 (29) n (%)
  Treatment-related serious AE: Abdominal pain (grade 2): 0 n (%)
  Treatment-related serious AE: Dehydration (grade 2): 0 n (%)
  Treatment-related serious AE: Diarrhea: 0 n (%)
  Treatment-related serious AE: Diarrhea, Grade 2: 0 n (%)
  Treatment-related serious AE: Diarrhea, Grade 3: 0 n (%)
  Treatment-related serious AE: Febrile neutropenia (grade 3): 0 n (%)
  Treatment-related serious AE: Hematemesis (grade 3): 0 n (%)
  Treatment-related serious AE: Nausea (grade 3): 0 n (%)
  Treatment-related serious AE: Neutropenia (grade 4): 0 n (%)
  Treatment-related serious AE: Non-cardiac chest pain (grade 3): 0 n (%)
  Treatment-related serious AE: Thrombocytopenia (grade 4): 0 n (%)
  Treatment-related serious AE: Vomiting: 0 n (%)
  Treatment-related serious AE: Vomiting, Grade 2: 0 n (%)
  Treatment-related serious AE: Vomiting, Grade 3: 0 n (%)
240 mg (n = 8)
  Patients with any treatment-emergent AE: 8 (100) n (%)
  Patients with any treatment-emergent serious AE: 4 (50) n (%)
  Patients with any treatment-related AE: 8 (100) n (%)
  Patients with any treatment-related AE, Grade 3: 3 (38) n (%)
  Patients with any treatment-related AE, Grade 4: 0 n (%)
  Patients with any treatment-related AE, Grade 5: 0 n (%)
  Patients with any treatment-related serious AE: 2 (25) n (%)
  Treatment-related AE: Abdominal pain: 2 (25) n (%)
  Treatment-related AE: Anemia: 1 (13) n (%)
  Treatment-related AE: Asthenia: 1 (13) n (%)
  Treatment-related AE: Decrease appetite: 2 (25) n (%)
  Treatment-related AE: Diarrhea: 6 (75) n (%)
  Treatment-related AE: Dysgeusia: 2 (25) n (%)
  Treatment-related AE: Fatigue: 4 (50) n (%)
  Treatment-related AE: Myalgia: 0 n (%)
  Treatment-related AE: Nausea: 5 (63) n (%)
  Treatment-related AE: Neutropenia: 0 n (%)
  Treatment-related AE: Thrombocytopenia: 1 (13) n (%)
  Treatment-related AE: Upper abdominal pain: 1 (13) n (%)
  Treatment-related AE: Vomiting: 5 (63) n (%)
  Treatment-related serious AE: Abdominal pain (grade 2): 1 (13) n (%)
  Treatment-related serious AE: Dehydration (grade 2): 0 n (%)
  Treatment-related serious AE: Diarrhea: 1 (13) n (%)
  Treatment-related serious AE: Diarrhea, Grade 2: 1 (13) n (%)
  Treatment-related serious AE: Diarrhea, Grade 3: 0 n (%)
  Treatment-related serious AE: Febrile neutropenia (grade 3): 0 n (%)
  Treatment-related serious AE: Hematemesis (grade 3): 0 n (%)
  Treatment-related serious AE: Nausea (grade 3): 1 (13) n (%)
  Treatment-related serious AE: Neutropenia (grade 4): 0 n (%)
  Treatment-related serious AE: Non-cardiac chest pain (grade 3): 1 (13) n (%)
  Treatment-related serious AE: Thrombocytopenia (grade 4): 0 n (%)
  Treatment-related serious AE: Vomiting: 1 (13) n (%)
  Treatment-related serious AE: Vomiting, Grade 2: 0 n (%)
  Treatment-related serious AE: Vomiting, Grade 3: 1 (13) n (%)
300 mg (n = 4)
  Patients with any treatment-emergent AE: 4 (100) n (%)
  Patients with any treatment-emergent serious AE: 2 (50) n (%)
  Patients with any treatment-related AE: 4 (100) n (%)
  Patients with any treatment-related AE, Grade 3: 3 (75) n (%)
  Patients with any treatment-related AE, Grade 4: 2 (50) n (%)
  Patients with any treatment-related AE, Grade 5: 0 n (%)
  Patients with any treatment-related serious AE: 2 (50) n (%)
  Treatment-related AE: Abdominal pain: 1 (25) n (%)
  Treatment-related AE: Anemia: 0 n (%)
  Treatment-related AE: Asthenia: 1 (25) n (%)
  Treatment-related AE: Decrease appetite: 1 (25) n (%)
  Treatment-related AE: Diarrhea: 4 (100) n (%)
  Treatment-related AE: Dysgeusia: 1 (25) n (%)
  Treatment-related AE: Fatigue: 2 (50) n (%)
  Treatment-related AE: Myalgia: 0 n (%)
  Treatment-related AE: Nausea: 1 (25) n (%)
  Treatment-related AE: Neutropenia: 2 (50) n (%)
  Treatment-related AE: Thrombocytopenia: 3 (75) n (%)
